From PubChem BioAssay AID288 (DTP/NCI, 2004)
“And” between values parts separate entries of the source, which are not always exact repeats. Equal entries are not always repeated. Results filed as inconclusive are left out.

Test system: BDF1 mice, M5076 sarcoma s.c., survival/tumor T/C
Test: NCI In Vivo Anticancer Drug Screen. Data for tumor model Sarcoma M5076 (subcutaneous) in B6D2F1 (BDF1) mice
Experimental: The antitumor activity of compounds was measured in mice bearing transplantable tumors. Survival or tumor size were measured and the results are expressed as the measurement made in the treated group (T) divided by the measurement made in the vehicle treated control group (C). The tumor model used in this assay is Sarcoma M5076 (subcutaneous) in B6D2F1 (BDF1) mice

**Q.** For `NCCc1ccc(O)c(O)c1`, which T/C (endpoint: mean tumor weight, dose: 25.0 mg/kg/injection, schedule: Q02DX011 (ip), vehicle: saline, higher = larger tumour) is on record?
**A.** 53 % of control

**Q.** And the T/C (endpoint: mean tumor weight, dose: 50.0 mg/kg/injection, schedule: Q02DX011 (ip), vehicle: saline, higher = larger tumour)?
**A.** 57 % of control

**Q.** What about the T/C (endpoint: mean tumor weight, dose: 100.0 mg/kg/injection, schedule: Q02DX011 (ip), vehicle: saline, higher = larger tumour) of the same compound?
**A.** 62 % of control

**Q.** And the T/C (endpoint: mean tumor weight, dose: 200.0 mg/kg/injection, schedule: Q02DX011 (ip), vehicle: saline, higher = larger tumour)?
**A.** 45 % of control

**Q.** And the T/C (endpoint: mean tumor weight, dose: 400.0 mg/kg/injection, schedule: Q02DX011 (ip), vehicle: saline, higher = larger tumour)?
**A.** 76 % of control

**Q.** And the T/C (endpoint: mean tumor weight, dose: 800.0 mg/kg/injection, schedule: Q02DX011 (ip), vehicle: saline, higher = larger tumour)?
**A.** 95 % of control

**Q.** And the T/C (endpoint: median survival time, dose: 12.5 mg/kg/injection, schedule: Q02DX030 (ip), vehicle: saline, higher = longer survival)?
**A.** 114 % of control

**Q.** And the T/C (endpoint: median survival time, dose: 25.0 mg/kg/injection, schedule: Q02DX030 (ip), vehicle: saline, higher = longer survival)?
**A.** 99 % of control

**Q.** And the T/C (endpoint: median survival time, dose: 50.0 mg/kg/injection, schedule: Q02DX030 (ip), vehicle: saline, higher = longer survival)?
**A.** 91 % of control

**Q.** And the T/C (endpoint: median survival time, dose: 100.0 mg/kg/injection, schedule: Q02DX030 (ip), vehicle: saline, higher = longer survival)?
**A.** 100 % of control

**Q.** And the T/C (endpoint: median survival time, dose: 200.0 mg/kg/injection, schedule: Q02DX030 (ip), vehicle: saline, higher = longer survival)?
**A.** 93 % of control

**Q.** And the T/C (endpoint: median survival time, dose: 800.0 mg/kg/injection, schedule: Q02DX030 (ip), vehicle: saline, higher = longer survival)?
**A.** 91 % of control

**Q.** And the T/C (endpoint: median tumor weight (est.), dose: 25.0 mg/kg/injection, schedule: Q02DX011 (ip), vehicle: saline, higher = larger tumour)?
**A.** 58 % of control

**Q.** What about the T/C (endpoint: median tumor weight (est.), dose: 50.0 mg/kg/injection, schedule: Q02DX011 (ip), vehicle: saline, higher = larger tumour) of the same compound?
**A.** 59 % of control

**Q.** And the T/C (endpoint: median tumor weight (est.), dose: 100.0 mg/kg/injection, schedule: Q02DX011 (ip), vehicle: saline, higher = larger tumour)?
**A.** 80 % of control

**Q.** And the T/C (endpoint: median tumor weight (est.), dose: 200.0 mg/kg/injection, schedule: Q02DX011 (ip), vehicle: saline, higher = larger tumour)?
**A.** 62 % of control

**Q.** And the T/C (endpoint: median tumor weight (est.), dose: 400.0 mg/kg/injection, schedule: Q02DX011 (ip), vehicle: saline, higher = larger tumour)?
**A.** 66 % of control

**Q.** What about the T/C (endpoint: median tumor weight (est.), dose: 800.0 mg/kg/injection, schedule: Q02DX011 (ip), vehicle: saline, higher = larger tumour) of the same compound?
**A.** 77 % of control

**Q.** What about the T/C (endpoint: median tumor weight change, dose: 12.5 mg/kg/injection, schedule: Q02DX006 (ip), vehicle: saline, higher = larger tumour) of the same compound?
**A.** 86 % of control

**Q.** And the T/C (endpoint: median tumor weight change, dose: 25.0 mg/kg/injection, schedule: Q02DX006 (ip), vehicle: saline, higher = larger tumour)?
**A.** 93 % of control

**Q.** What about the T/C (endpoint: median tumor weight change, dose: 50.0 mg/kg/injection, schedule: Q02DX006 (ip), vehicle: saline, higher = larger tumour) of the same compound?
**A.** 112 % of control

**Q.** What about the T/C (endpoint: median tumor weight change, dose: 100.0 mg/kg/injection, schedule: Q02DX006 (ip), vehicle: saline, higher = larger tumour) of the same compound?
**A.** 103 % of control

**Q.** What about the T/C (endpoint: median tumor weight change, dose: 200.0 mg/kg/injection, schedule: Q02DX006 (ip), vehicle: saline, higher = larger tumour) of the same compound?
**A.** 105 % of control

**Q.** What about the T/C (endpoint: median tumor weight change, dose: 400.0 mg/kg/injection, schedule: Q02DX006 (ip), vehicle: saline, higher = larger tumour) of the same compound?
**A.** 99 % of control

**Q.** What about the T/C (endpoint: median tumor weight change, dose: 800.0 mg/kg/injection, schedule: Q02DX006 (ip), vehicle: saline, higher = larger tumour) of the same compound?
**A.** 101 % of control

**Q.** `CSC1SCC2C(=O)N(C)C(C(C)C)C(=O)OCC(NC(=O)c3cnc4ccccc4n3)C(=O)NC(C)C(=O)N(C)C1C(=O)N(C)C(C(C)C)C(=O)OCC(NC(=O)c1cnc3ccccc3n1)C(=O)NC(C)C(=O)N2C` (stereo not given) was tested. Which T/C (endpoint: median survival time, dose: 0.06 mg/kg/injection, schedule: Q04DX003 (ip), vehicle: saline with Tween-80, higher = longer survival) did it give?
**A.** 96 % of control

**Q.** What about the T/C (endpoint: median survival time, dose: 0.12 mg/kg/injection, schedule: Q04DX003 (ip), vehicle: saline with Tween-80, higher = longer survival) of the same compound?
**A.** 91 % of control

**Q.** For `CS(=O)(=O)c1ncc(Br)cn1`, which T/C (endpoint: median survival time, dose: 25.0 mg/kg/injection, schedule: Q04DX003 (ip), vehicle: saline with Tween-80, higher = longer survival) is on record?
**A.** 100 % of control

**Q.** And the T/C (endpoint: median survival time, dose: 50.0 mg/kg/injection, schedule: Q04DX003 (ip), vehicle: saline with Tween-80, higher = longer survival)?
**A.** 84 % of control

**Q.** And the T/C (endpoint: median survival time, dose: 100.0 mg/kg/injection, schedule: Q04DX003 (ip), vehicle: saline with Tween-80, higher = longer survival)?
**A.** 99 % of control

**Q.** And the T/C (endpoint: median survival time, dose: 200.0 mg/kg/injection, schedule: Q04DX003 (ip), vehicle: saline with Tween-80, higher = longer survival)?
**A.** 91 % of control

**Q.** With `O=[N+]([O-])c1nccn1CC(O)CO` (stereo not given) as the compound, how does the T/C (endpoint: median survival time, dose: 1776.0 mg/kg/injection, schedule: Q01DX001 (ip), vehicle: saline, higher = longer survival) read?
**A.** 101 % of control and 102 % of control

**Q.** What about the T/C (endpoint: median survival time, dose: 2500.0 mg/kg/injection, schedule: Q01DX001 (ip), vehicle: saline, higher = longer survival) of the same compound?
**A.** 102 % of control (2×) and 92 % of control

**Q.** `COC1=C(C)C(=O)C2=C(C1=O)C(CO)N1C(C#N)C3CC4C(C1C2N1CCOC41)N3C` (stereo not given) was tested. Which T/C (endpoint: median survival time, dose: 0.06 mg/kg/injection, schedule: Q01DX009 (ip), vehicle: saline + alcohol, higher = longer survival) did it give?
**A.** 100 % of control

**Q.** And the T/C (endpoint: median survival time, dose: 0.13 mg/kg/injection, schedule: Q01DX009 (ip), vehicle: saline + alcohol, higher = longer survival)?
**A.** 96 % of control

**Q.** And the T/C (endpoint: median survival time, dose: 0.25 mg/kg/injection, schedule: Q01DX009 (ip), vehicle: saline + alcohol, higher = longer survival)?
**A.** 91 % of control

**Q.** What about the T/C (endpoint: median survival time, dose: 0.5 mg/kg/injection, schedule: Q01DX009 (ip), vehicle: saline + alcohol, higher = longer survival) of the same compound?
**A.** 106 % of control

**Q.** What about the T/C (endpoint: median tumor weight (est.), dose: 0.06 mg/kg/injection, schedule: Q01DX009 (ip), vehicle: saline + alcohol, higher = larger tumour) of the same compound?
**A.** 103 % of control

**Q.** And the T/C (endpoint: median tumor weight (est.), dose: 0.13 mg/kg/injection, schedule: Q01DX009 (ip), vehicle: saline + alcohol, higher = larger tumour)?
**A.** 153 % of control

**Q.** What about the T/C (endpoint: median tumor weight (est.), dose: 0.25 mg/kg/injection, schedule: Q01DX009 (ip), vehicle: saline + alcohol, higher = larger tumour) of the same compound?
**A.** 95 % of control

**Q.** And the T/C (endpoint: median tumor weight (est.), dose: 0.5 mg/kg/injection, schedule: Q01DX009 (ip), vehicle: saline + alcohol, higher = larger tumour)?
**A.** 80 % of control

**Q.** Which T/C (endpoint: mean tumor weight, dose: 1.88 mg/kg/injection, schedule: Q02DX011 (ip), vehicle: clinical formulation, higher = larger tumour) does the source give for `COc1cc(NS(C)(=O)=O)ccc1Nc1c2ccccc2nc2ccccc12` here?
**A.** 68 % of control

**Q.** And the T/C (endpoint: mean tumor weight, dose: 3.75 mg/kg/injection, schedule: Q02DX011 (ip), vehicle: clinical formulation, higher = larger tumour)?
**A.** 31 % of control

**Q.** What about the T/C (endpoint: median tumor weight (est.), dose: 1.88 mg/kg/injection, schedule: Q02DX011 (ip), vehicle: clinical formulation, higher = larger tumour) of the same compound?
**A.** 79 % of control

**Q.** What about the T/C (endpoint: median tumor weight (est.), dose: 3.75 mg/kg/injection, schedule: Q02DX011 (ip), vehicle: clinical formulation, higher = larger tumour) of the same compound?
**A.** 42 % of control
